According to patent US7838674B2, “Tetracyclic lactame derivatives” (Novartis AG, priority 2007, dated 2010):
pIC50: −log10 of the molar value. Structures can show the parent of a compound that is named as a salt.

These compounds were tested against human MK2 (Homo sapiens, UniProt P49137) (assay: MAPKAPK2 kinase assay (TR-FRET, Hsp27 peptide substrate)). Conditions: not given.
Sequence of human MK2 (P49137 whole entry): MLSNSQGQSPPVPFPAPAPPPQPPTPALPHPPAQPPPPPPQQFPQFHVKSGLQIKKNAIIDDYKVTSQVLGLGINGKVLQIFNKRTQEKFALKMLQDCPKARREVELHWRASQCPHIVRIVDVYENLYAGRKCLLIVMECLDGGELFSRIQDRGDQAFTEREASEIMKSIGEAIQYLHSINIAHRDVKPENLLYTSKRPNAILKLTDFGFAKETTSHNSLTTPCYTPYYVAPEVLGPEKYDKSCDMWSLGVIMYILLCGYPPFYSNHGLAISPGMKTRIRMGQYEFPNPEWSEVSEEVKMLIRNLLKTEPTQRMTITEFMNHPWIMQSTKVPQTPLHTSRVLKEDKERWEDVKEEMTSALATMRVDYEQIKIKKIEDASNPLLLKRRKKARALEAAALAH

O=C1NC2(CNC2)Cc2[nH]c3c(c21)CCc1cnc(-c2cccc(F)c2)cc1-3 [Example 24, 2-(3-Amino-azetidin-3-ylmethyl)-8-(3-fluoro-phenyl)-4,5-dihydro-1H-pyrrolo[2,3-f]isoquinoline-3-carboxylic acid lactam hydrochloride] and O=C1NC2(CNC2)Cc2[nH]c3c(c21)CCc1cnc(-c2cccc(F)c2)nc1-3 [Example 26, 2-(3-Amino-azetidin-3-ylmethyl)-8-(3-fluoro-phenyl)-4,5-dihydro-1H-1,7,9-triaza-cyclopenta[a]naphthalene-3-carboxylic acid lactam hydrochloride] are within 0.2 log units of each other in pIC50: 7.89 for the first, 7.82 for the second.

Compared with Cn1c2c(c3c1-c1nc(-c4cccc(F)c4)ncc1CC3)C(=O)NC1(CNC1)C2 [Example 27, 2-(3-Amino-azetidin-3-ylmethyl)-8-(3-fluoro-phenyl)-1-methyl-4,5-dihydro-1H-1,7,9-triaza-cyclopenta[a]naphthalene-3-carboxylic acid lactam hydrochloride], Cn1c2c(c3c1C1(CNC1)CNC3=O)CCc1cnc(-c3ccc(C(F)(F)F)nc3)cc1-2 [Example 169, 2-(3-Aminomethyl-azetidin-3-yl)-8-(6-trifluoromethyl-pyridin-3-yl)-1-methyl-4,5-dihydro-1H-pyrrolo[2,3-f]isoquinoline-3-carboxylic acid lactam hydrochloride] is 0.34 log units lower in pIC50: 7.37 for the first, 7.03 for the second.

Compared with O=C1NC2(CC2)Cc2[nH]c3c(c21)CCc1cnc(-c2ccc(N4CCCCC4)nc2)cc1-3 [Example 83, 2-(1-Amino-cyclopropylmethyl)-8-(3,4,5,6-tetrahydro-2H-[1,2′]bipyridinyl-5′-yl)-4,5-dihydro-1H-pyrrolo[2,3-f]isoquinoline-3-carboxylic acid lactam], COc1ccc(-c2cc3c(cn2)CCc2c-3[nH]c3c2C(=O)NC2(CC2)C3)cn1 [Example 88, 2-(1-Amino-cyclopropylmethyl)-8-(6-methoxy-pyridin-3-yl)-4,5-dihydro-1H-pyrrolo[2,3-f]isoquinoline-3-carboxylic acid lactam] is 0.28 log units higher in pIC50: 7.14 for the first, 7.42 for the second.

First: Cc1cncc(-c2cc3c(cn2)CCc2c-3[nH]c3c2C(=O)NC2(CC2)C3)c1 [Example 84, 2-(1-Amino-cyclopropylmethyl)-8-(5-methyl-pyridin-3-yl)-4,5-dihydro-1H-pyrrolo[2,3-f]isoquinoline-3-carboxylic acid lactam]
Second: O=C1NC2(CC2)Cc2[nH]c3c(c21)CCc1cnc(-c2cncc(F)c2)cc1-3 [Example 89, 2-(1-Amino-cyclopropylmethyl)-8-(5-fluoro-pyridin-3-yl)-4,5-dihydro-1H-pyrrolo[2,3-f]isoquinoline-3-carboxylic acid lactam]
The pIC50 of the first is 0.31 log units higher: 7.41 for the first, 7.10 for the second. The first is the more potent here.

COc1cncc(-c2cc3c(cn2)CCc2c-3[nH]c3c2C(=O)NC2(CC2)C3)c1 [Example 87, 2-(1-Amino-cyclopropylmethyl)-8-(5-methoxy-pyridin-3-yl)-4,5-dihydro-1H-pyrrolo[2,3-f]isoquinoline-3-carboxylic acid lactam] and O=C1NC2(CC2)Cc2[nH]c3c(c21)CCc1cnc(-c2cncc(OC4CCOCC4)c2)cc1-3 [Example 94, 2-(1-Amino-cyclopropylmethyl)-8-[5-(tetrahydro-pyran-4-yloxy)-pyridin-3-yl]-4,5-dihydro-1H-pyrrolo[2,3-f]isoquinoline-3-carboxylic acid lactam] are within 0.2 log units of each other in pIC50: 7.38 for the first, 7.28 for the second.

First: CCOc1ccc(-c2cc3c(cn2)CCc2c-3[nH]c3c2C(=O)NC2(CC2)C3)cn1 [Example 90, 2-(1-Amino-cyclopropylmethyl)-8-(6-ethoxy-pyridin-3-yl)-4,5-dihydro-1H-pyrrolo[2,3-f]isoquinoline-3-carboxylic acid lactam]
Second: O=C1NC2(CC2)Cc2[nH]c3c(c21)CCc1cnc(-c2ccc(OC4CCOCC4)nc2)cc1-3 [Example 96, 2-(1-Amino-cyclopropylmethyl)-8-[6-(tetrahydro-pyran-4-yloxy)-pyridin-3-yl]-4,5-dihydro-1H-pyrrolo[2,3-f]isoquinoline-3-carboxylic acid lactam]
The pIC50 of the first is 0.31 log units lower: 7.04 for the first, 7.35 for the second.

First: O=C1NC2(CC2)Cc2[nH]c3c(c21)CCc1cnc(-c2cccnc2)cc1-3 [Example 93, 2-(1-Amino-cyclopropylmethyl)-8-pyridin-3-yl-4,5-dihydro-1H-pyrrolo[2,3-f]isoquinoline-3-carboxylic acid lactam]
Second: O=C1NC2(CC2)Cc2[nH]c3c(c21)CCc1cnc(-c2ccc(Oc4ccc(F)cc4F)nc2)cc1-3 [Example 95, 2-(1-Amino-cyclopropylmethyl)-8-[6-(2,4-difluoro-phenoxy)-pyridin-3-yl]-4,5-dihydro-1H-pyrrolo[2,3-f]isoquinoline-3-carboxylic acid lactam]
The pIC50 of the first is 0.29 log units higher: 7.29 for the first, 7.00 for the second.

O=C1NC2(CCC2)Cc2[nH]c3c(c21)CCc1cnc(-c2ccc(OC4CCOCC4)nc2)cc1-3 [Example 108, 2-(1-Amino-cyclobutylmethyl)-8-[6-(tetrahydro-pyran-4-yloxy)-pyridin-3-yl]-4,5-dihydro-1H-pyrrolo[2,3-f]isoquinoline-3-carboxylic acid lactam] and O=C1NC2(CCC2)Cc2[nH]c3c(c21)CCc1cnc(-c2cncc(OC4CCOCC4)c2)cc1-3 [Example 109, 2-(1-Amino-cyclobutylmethyl)-8-[5-(tetrahydro-pyran-4-yloxy)-pyridin-3-yl]-4,5-dihydro-1H-pyrrolo[2,3-f]isoquinoline-3-carboxylic acid lactam] are within 0.2 log units of each other in pIC50: 7.31 for the first, 7.38 for the second.

Compared with O=C1NC2(CCC2)Cc2[nH]c3c(c21)CCc1cnc(-c2ccc(CN4CCOCC4)c(F)c2)cc1-3 [Example 110, 2-(1-Amino-cyclobutylmethyl)-8-(3-fluoro-4-morpholin-4-ylmethyl-phenyl)-4,5-dihydro-1H-pyrrolo[2,3-f]isoquinoline-3-carboxylic acid lactam], N#Cc1cc(-c2cc3c(cn2)CCc2c-3[nH]c3c2C(=O)NCC32CC2)ccc1OCCN1CCOCC1 [Example 305, 2-(2-Morpholin-4-yl-ethoxy)-5-(7-oxo-10-spirocyclopropyl-6,7,8,9,10,11-hexahydro-5H-3,8,11-triaza-benzo[a]fluoren-2-yl)-benzonitrile] is 0.84 log units higher in pIC50: 7.08 for the first, 7.92 for the second.

Going from O=C1NCC2(CNC2)c2[nH]c3c(c21)CCc1cnc(-c2ccc(C(F)(F)F)nc2)cc1-3 [Example 166, 2-(3-Aminomethyl-azetidin-3-yl)-8-(6-trifluoromethyl-pyridin-3-yl)-4,5-dihydro-1H-pyrrolo[2,3-f]isoquinoline-3-carboxylic acid lactam hydrochloride] to CN1CC2(CNC(=O)c3c2[nH]c2c3CCc3cnc(-c4ccc(C(F)(F)F)nc4)cc3-2)C1 [Example 168, 2-(3-Aminomethyl-1-methyl-azetidin-3-yl)-8-(6-trifluoromethyl-pyridin-3-yl)-4,5-dihydro-1H-pyrrolo[2,3-f]isoquinoline-3-carboxylic acid lactam], the pIC50 falls from 8.15 to 7.85 (0.30 log units).

COCc1ccc(CNC(=O)c2cccc(-c3cc4c(cn3)CCc3c-4[nH]c4c3C(=O)NC3(CC3)C4)c2)cc1 [Example 273] and COc1ccc(CNC(=O)c2cccc(-c3cc4c(cn3)CCc3c-4[nH]c4c3C(=O)NC3(CC3)C4)c2)cn1 [Example 274] are within 0.2 log units of each other in pIC50: 7.72 for the first, 7.80 for the second.

Compared with C[C@H](NC(=O)c1cccc(-c2cc3c(cn2)CCc2c-3[nH]c3c2C(=O)NC2(CC2)C3)c1)c1ccccc1 [Example 275], O=C(NCc1ccccc1)c1cccc(-c2cc3c(cn2)CCc2c-3[nH]c3c2C(=O)NC2(CC2)C3)c1 [Example 276, 2-(1-Amino-cyclopropylmethyl)-8-(3-benzylcarbamoyl)-phenyl-4,5-dihydro-1H-pyrrolo[2,3-f]isoquinoline-3-carboxylic acid lactam] is 0.26 log units higher in pIC50: 7.70 for the first, 7.96 for the second. The second is the more potent here.

Compared with CN1CCN(c2ccc(-c3cc4c(cn3)CCc3c-4[nH]c4c3C(=O)NCC43CC3)cc2C#N)CC1 [Example 306, 2-(4-Methyl-piperazin-1-yl)-5-(7-oxo-10-spirocyclopropyl-6,7,8,9,10,11-hexahydro-5H-3,8,11-triaza-benzo[a]fluoren-2-yl)-benzonitrile], N#Cc1cc(-c2cc3c(cn2)CCc2c-3[nH]c3c2C(=O)NCC32CC2)ccc1N1CCOCC1 [Example 307, 2-Morpholin-4-yl-5-(7-oxo-10-spirocyclopropyl-6,7,8,9,10,11-hexahydro-5H-3,8,11-triaza-benzo[a]fluoren-2-yl)-benzonitrile] is 0.20 log units lower in pIC50: 8.05 for the first, 7.85 for the second.

CN(C)CCOc1ccc(-c2cc3c(cn2)CCc2c-3[nH]c3c2C(=O)NCC32CC2)cc1C#N [Example 308, 2-(2-Dimethylamino-ethoxy)-5-(7-oxo-10-spirocyclopropyl-6,7,8,9,10,11-hexahydro-5H-3,8,11-triaza-benzo[a]fluoren-2-yl)-benzonitrile] and COCCOc1ccc(-c2cc3c(cn2)CCc2c-3[nH]c3c2C(=O)NCC32CC2)cc1C#N [Example 309, 2-(2-Methoxy-ethoxy)-5-(7-oxo-10-spirocyclopropyl-6,7,8,9,10,11-hexahydro-5H-3,8,11-triaza-benzo[a]fluoren-2-yl)-benzonitrile] are within 0.2 log units of each other in pIC50: 7.82 for the first, 7.70 for the second.

Going from COCCOc1cc(-c2cc3c(cn2)CCc2c-3[nH]c3c2C(=O)NCC32CC2)ccc1F [Example 310, 2-[4-Fluoro-3-(2-methoxy-ethoxy)-phenyl]-10-spirocyclopropyl-5,6,8,9,10,11-hexahydro-3,8,11-triaza-benzo[a]fluoren-7-one] to CN(C)CCOc1cc(-c2cc3c(cn2)CCc2c-3[nH]c3c2C(=O)NCC32CC2)ccc1F [Example 311, 2-[3-(2-Dimethylamino-ethoxy)-4-fluoro-phenyl]-10-spirocyclopropyl-5,6,8,9,10,11-hexahydro-3,8,11-triaza-benzo[a]fluoren-7-one], the pIC50 rises from 7.01 to 7.57 (0.56 log units).

With N#Cc1cc(-c2cc3c(cn2)CCc2c-3[nH]c3c2C(=O)NCC32CC2)ccc1N1CCC(O)C1 (stereo not drawn) [Example 312, 2-(3-Hydroxy-pyrrolidin-1-yl)-10-spirocyclopropyl-5-(7-oxo-6,7,8,9,10,11-hexahydro-5H-3,8,11-triaza-benzo[a]fluoren-2-yl)-benzonitrile] the pIC50 was 7.82.

These compounds were tested against T1, MAPKAPK2 enzyme (HIS-MK2, Invitrogen PV4019) (Homo sapiens, UniProt P49137) (assay: Alternative MAPKAPK2 assay (Caliper microfluidic mobility shift, HSP27-peptide)). Conditions: HIS-MK2 0.013 nM, ATP 10 μM, 60 min at 30° C.
T1 construct: His; purchased Invitrogen PV4019
Format: biochemical

T1 sequence (P49137 whole entry): as above

Compared with CN(C)CCOc1cc(-c2cc3c(cn2)CCc2c-3[nH]c3c2C(=O)NCC32CC2)ccc1F [Example 311, 2-[3-(2-Dimethylamino-ethoxy)-4-fluoro-phenyl]-10-spirocyclopropyl-5,6,8,9,10,11-hexahydro-3,8,11-triaza-benzo[a]fluoren-7-one], N#Cc1cc(-c2cc3c(cn2)CCc2c-3[nH]c3c2C(=O)NCC32CC2)ccc1N1CCC(O)C1 (stereo not drawn) [Example 312, 2-(3-Hydroxy-pyrrolidin-1-yl)-10-spirocyclopropyl-5-(7-oxo-6,7,8,9,10,11-hexahydro-5H-3,8,11-triaza-benzo[a]fluoren-2-yl)-benzonitrile] is 0.25 log units higher in pIC50: 7.57 for the first, 7.82 for the second.
